Results from ChEMBL document CHEMBL3991601, “The target landscape of clinical kinase drugs” (Science, 2017).
Calls of active or inactive are those of the source.

Assays:
[1] = biological target: T1, Signal recognition particle receptor subunit alpha (Homo sapiens, UniProt P08240)
T1 sequence (P08240 whole entry): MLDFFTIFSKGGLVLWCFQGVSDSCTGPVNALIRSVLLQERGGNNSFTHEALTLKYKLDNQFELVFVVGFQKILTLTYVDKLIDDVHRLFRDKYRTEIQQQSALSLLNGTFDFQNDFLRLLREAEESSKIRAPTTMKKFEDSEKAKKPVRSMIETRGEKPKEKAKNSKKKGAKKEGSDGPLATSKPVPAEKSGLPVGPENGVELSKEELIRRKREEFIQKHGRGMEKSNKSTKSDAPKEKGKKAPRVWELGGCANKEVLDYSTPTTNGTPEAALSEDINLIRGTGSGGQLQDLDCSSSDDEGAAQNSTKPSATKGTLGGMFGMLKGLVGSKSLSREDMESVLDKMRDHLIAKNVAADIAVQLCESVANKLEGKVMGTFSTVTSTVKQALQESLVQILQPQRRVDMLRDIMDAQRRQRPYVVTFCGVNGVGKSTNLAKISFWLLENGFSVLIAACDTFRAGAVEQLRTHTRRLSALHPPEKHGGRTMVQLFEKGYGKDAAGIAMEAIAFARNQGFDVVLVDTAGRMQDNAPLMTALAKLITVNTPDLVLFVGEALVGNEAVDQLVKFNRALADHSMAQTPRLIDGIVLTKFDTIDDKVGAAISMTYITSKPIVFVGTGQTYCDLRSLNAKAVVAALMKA

[2] = biological target: Mitogen-activated protein kinase 7 (Homo sapiens, UniProt Q13164)
Chain of Mitogen-activated protein kinase 7 (Q13164 whole entry): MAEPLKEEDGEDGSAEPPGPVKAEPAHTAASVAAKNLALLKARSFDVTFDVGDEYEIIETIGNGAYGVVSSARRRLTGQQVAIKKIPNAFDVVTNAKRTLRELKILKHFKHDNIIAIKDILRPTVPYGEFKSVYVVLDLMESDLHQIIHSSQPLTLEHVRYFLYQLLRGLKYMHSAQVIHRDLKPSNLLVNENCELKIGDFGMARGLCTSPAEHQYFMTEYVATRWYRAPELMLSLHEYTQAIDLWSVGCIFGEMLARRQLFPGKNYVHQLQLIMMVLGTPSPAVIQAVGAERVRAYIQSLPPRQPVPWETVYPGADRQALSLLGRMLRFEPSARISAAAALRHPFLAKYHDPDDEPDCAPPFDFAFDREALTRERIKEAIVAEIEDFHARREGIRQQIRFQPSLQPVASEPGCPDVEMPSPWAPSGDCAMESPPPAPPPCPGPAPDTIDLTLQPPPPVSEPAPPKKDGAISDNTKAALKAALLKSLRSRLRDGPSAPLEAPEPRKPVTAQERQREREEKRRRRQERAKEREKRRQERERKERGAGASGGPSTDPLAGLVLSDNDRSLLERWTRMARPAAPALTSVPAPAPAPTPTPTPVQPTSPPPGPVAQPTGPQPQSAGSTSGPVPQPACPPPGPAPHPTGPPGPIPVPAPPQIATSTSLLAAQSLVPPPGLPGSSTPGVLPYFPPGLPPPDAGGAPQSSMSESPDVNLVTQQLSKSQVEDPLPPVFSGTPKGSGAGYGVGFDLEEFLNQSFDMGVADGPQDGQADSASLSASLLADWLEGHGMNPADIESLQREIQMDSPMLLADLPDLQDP

[3] = biological target: Serine/threonine-protein kinase PAK 4 (Homo sapiens, UniProt O96013)
Chain of Serine/threonine-protein kinase PAK 4 (O96013 whole entry): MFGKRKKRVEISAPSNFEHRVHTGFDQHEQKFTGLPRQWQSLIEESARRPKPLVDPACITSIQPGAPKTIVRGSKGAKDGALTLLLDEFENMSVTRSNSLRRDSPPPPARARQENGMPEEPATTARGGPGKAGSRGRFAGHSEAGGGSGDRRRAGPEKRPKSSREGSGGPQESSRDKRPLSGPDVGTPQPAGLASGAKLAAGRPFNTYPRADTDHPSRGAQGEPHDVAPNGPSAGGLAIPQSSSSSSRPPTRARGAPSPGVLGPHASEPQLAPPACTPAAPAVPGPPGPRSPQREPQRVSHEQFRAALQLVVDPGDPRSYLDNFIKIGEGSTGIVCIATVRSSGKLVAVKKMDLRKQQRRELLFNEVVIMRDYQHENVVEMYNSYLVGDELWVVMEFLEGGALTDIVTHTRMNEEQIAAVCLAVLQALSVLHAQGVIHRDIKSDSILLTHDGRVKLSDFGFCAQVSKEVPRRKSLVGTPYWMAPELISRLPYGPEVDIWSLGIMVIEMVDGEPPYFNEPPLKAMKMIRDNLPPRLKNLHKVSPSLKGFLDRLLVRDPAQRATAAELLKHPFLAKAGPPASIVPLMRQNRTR

[4] = biological target: Citron Rho-interacting kinase (Homo sapiens, UniProt O14578)
Chain of Citron Rho-interacting kinase (O14578 whole entry): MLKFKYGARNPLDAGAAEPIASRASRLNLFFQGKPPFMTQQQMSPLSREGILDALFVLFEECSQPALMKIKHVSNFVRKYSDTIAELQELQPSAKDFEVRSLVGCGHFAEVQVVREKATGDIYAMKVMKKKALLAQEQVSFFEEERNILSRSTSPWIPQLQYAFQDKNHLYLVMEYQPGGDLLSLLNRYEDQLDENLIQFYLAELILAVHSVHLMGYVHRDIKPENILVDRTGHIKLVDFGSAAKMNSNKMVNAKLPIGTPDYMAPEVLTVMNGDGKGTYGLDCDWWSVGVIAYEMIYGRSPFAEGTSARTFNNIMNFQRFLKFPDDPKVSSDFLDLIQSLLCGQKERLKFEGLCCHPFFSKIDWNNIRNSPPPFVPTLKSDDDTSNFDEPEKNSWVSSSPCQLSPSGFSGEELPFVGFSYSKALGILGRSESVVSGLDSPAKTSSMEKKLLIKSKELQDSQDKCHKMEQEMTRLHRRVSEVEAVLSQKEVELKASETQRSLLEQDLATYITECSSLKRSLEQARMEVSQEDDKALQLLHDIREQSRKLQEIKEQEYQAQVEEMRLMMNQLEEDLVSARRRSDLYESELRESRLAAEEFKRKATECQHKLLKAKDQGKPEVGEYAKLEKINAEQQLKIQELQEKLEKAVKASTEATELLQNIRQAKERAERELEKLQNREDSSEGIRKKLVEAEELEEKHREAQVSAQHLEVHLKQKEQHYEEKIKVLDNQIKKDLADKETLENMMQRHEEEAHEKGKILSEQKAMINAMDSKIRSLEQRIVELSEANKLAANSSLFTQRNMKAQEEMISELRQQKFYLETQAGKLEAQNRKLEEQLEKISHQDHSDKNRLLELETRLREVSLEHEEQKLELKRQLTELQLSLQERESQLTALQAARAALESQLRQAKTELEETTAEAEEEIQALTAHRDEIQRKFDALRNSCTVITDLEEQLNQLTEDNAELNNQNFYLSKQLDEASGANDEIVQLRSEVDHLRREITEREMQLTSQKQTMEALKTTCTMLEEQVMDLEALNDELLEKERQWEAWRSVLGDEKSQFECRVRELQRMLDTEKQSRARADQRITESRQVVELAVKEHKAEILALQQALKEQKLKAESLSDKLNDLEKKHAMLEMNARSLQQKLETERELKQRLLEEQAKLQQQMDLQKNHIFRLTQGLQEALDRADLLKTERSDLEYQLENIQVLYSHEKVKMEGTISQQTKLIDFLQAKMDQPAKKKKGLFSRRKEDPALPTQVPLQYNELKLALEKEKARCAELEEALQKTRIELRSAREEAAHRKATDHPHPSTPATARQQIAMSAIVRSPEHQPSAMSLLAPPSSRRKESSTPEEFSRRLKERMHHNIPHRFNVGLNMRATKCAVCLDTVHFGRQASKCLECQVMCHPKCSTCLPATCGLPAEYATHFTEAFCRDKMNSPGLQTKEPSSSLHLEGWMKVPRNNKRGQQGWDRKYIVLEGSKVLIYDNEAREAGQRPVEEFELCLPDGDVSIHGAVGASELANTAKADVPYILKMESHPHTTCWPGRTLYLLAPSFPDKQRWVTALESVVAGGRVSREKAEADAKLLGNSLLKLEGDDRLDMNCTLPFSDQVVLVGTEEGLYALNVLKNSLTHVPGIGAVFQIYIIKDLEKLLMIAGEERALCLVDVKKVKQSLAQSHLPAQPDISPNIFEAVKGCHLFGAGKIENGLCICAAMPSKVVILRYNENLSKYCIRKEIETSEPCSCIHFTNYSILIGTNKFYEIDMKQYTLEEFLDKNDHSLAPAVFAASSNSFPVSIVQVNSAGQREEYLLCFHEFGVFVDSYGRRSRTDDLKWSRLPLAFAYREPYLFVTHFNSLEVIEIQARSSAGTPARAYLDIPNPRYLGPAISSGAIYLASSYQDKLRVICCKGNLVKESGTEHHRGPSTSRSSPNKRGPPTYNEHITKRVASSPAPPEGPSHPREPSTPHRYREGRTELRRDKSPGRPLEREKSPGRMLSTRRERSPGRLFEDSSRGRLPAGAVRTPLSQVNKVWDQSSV

[5] = biological target: T2, Glycogen phosphorylase, brain form (Homo sapiens, UniProt P11216)
T2 sequence (P11216 whole entry): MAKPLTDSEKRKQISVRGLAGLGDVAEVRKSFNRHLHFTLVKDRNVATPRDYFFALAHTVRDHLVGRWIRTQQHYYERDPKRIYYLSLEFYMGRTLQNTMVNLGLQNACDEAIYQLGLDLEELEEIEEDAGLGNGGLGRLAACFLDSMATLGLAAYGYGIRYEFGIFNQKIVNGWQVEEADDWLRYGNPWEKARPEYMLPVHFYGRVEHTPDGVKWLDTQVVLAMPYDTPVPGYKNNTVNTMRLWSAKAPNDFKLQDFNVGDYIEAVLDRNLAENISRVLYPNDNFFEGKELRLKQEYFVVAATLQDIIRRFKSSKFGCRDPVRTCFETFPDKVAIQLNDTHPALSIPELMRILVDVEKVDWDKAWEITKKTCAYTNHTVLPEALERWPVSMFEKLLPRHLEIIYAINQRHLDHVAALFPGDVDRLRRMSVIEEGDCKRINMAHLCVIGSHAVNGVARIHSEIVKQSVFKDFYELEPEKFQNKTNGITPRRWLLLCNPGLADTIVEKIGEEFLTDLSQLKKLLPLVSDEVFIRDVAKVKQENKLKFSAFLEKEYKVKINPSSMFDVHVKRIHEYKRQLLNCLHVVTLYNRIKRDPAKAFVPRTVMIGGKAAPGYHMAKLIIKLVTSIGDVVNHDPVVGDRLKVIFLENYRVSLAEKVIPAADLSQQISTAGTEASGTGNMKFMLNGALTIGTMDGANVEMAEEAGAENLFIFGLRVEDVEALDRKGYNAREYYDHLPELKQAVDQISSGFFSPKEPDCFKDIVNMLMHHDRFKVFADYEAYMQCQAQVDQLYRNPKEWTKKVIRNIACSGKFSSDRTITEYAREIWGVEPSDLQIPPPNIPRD

[6] = biological target: T3, Ras-related protein Rab-27A (Homo sapiens, UniProt P51159)
T3 sequence (P51159 whole entry): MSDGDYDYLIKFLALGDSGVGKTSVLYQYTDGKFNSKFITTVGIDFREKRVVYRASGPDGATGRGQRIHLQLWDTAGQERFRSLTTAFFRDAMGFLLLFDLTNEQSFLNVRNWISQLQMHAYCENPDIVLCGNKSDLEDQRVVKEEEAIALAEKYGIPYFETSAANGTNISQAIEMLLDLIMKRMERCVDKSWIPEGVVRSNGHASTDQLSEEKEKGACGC

[7] = biological target: Tyrosine-protein kinase Yes (Homo sapiens, UniProt P07947)
Chain of Tyrosine-protein kinase Yes (P07947 whole entry): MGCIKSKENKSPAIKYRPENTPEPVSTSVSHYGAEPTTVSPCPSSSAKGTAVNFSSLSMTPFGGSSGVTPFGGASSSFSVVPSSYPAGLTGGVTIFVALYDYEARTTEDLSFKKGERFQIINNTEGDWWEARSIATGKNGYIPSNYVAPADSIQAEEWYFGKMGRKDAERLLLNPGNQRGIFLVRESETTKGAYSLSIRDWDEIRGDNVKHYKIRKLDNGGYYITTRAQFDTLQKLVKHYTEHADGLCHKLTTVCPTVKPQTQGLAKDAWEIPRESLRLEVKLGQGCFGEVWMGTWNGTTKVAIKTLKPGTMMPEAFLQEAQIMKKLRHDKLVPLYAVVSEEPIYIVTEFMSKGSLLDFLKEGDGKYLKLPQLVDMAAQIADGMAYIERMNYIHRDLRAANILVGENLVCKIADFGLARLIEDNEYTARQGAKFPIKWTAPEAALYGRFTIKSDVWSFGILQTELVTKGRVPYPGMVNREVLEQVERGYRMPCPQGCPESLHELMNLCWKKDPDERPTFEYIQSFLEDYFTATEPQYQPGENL

[8] = biological target: T4, Serine/threonine-protein kinase Nek2 (Homo sapiens, UniProt P51955)
T4 sequence (P51955 whole entry): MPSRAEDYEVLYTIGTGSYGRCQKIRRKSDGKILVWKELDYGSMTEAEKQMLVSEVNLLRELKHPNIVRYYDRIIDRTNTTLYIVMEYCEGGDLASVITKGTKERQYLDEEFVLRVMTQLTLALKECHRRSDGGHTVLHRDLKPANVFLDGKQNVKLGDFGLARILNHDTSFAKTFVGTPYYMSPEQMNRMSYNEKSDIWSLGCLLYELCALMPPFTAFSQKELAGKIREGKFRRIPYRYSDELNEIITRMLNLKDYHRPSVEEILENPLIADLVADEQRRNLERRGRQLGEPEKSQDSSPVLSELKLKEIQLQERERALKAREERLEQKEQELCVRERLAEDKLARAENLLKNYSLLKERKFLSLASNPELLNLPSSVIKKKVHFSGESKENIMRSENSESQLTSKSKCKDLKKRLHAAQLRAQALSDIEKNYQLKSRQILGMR

[9] = biological target: Cyclin-dependent kinase 1 (Homo sapiens, UniProt P06493)
Chain of Cyclin-dependent kinase 1 (P06493 whole entry): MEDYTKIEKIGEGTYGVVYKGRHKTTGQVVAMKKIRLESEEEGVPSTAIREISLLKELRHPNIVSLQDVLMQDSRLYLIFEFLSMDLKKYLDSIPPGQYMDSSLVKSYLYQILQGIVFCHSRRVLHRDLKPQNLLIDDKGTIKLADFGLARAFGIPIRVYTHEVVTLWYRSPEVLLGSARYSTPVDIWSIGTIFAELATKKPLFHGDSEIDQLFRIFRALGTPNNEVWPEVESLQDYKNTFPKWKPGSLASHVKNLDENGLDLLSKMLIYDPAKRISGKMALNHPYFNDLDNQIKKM
Note: in the data inactive means no Kd found up to 30 µM.

Compound	Kd [1]	Kd [2]	Kd [3]	Kd [4]	Kd [5]	Kd [6]	Kd [7]	Kd [8]	Kd [9]
COCCNCc1ccc(-c2cc3nccc(Oc4ccc(NC(=S)NC(=O)Cc5ccc(F)cc5)cc4F)c3s2)nc1 [GLESATINIB]	> 30 µM (inactive)	> 30 µM (inactive)	> 30 µM (inactive)	> 30 µM (inactive)	> 30 µM (inactive)	> 30 µM (inactive)	> 30 µM (inactive)	> 30 µM (inactive)	> 30 µM (inactive)
CN1CC[C@@H](c2c(O)cc(O)c3c(=O)cc(-c4ccccc4Cl)oc23)[C@@H]1CO	> 30 µM (inactive)	> 30 µM (inactive)	> 30 µM (inactive)	> 30 µM (inactive)	> 30 µM (inactive)	> 30 µM (inactive)	> 30 µM (inactive)	> 30 µM (inactive)	4.23 µM (active)
CNC(=O)c1ccc(-c2cnc3ncc(Cc4ccc5ncccc5c4)n3n2)cc1F [CAPMATINIB]	> 30 µM (inactive)	> 30 µM (inactive)	> 30 µM (inactive)	> 30 µM (inactive)	> 30 µM (inactive)	> 30 µM (inactive)	> 30 µM (inactive)	> 30 µM (inactive)	> 30 µM (inactive)
CN1CCC(COc2cnc(-c3cccc(Cn4nc(-c5cccc(C#N)c5)ccc4=O)c3)nc2)CC1 [TEPOTINIB]	> 30 µM (inactive)	> 30 µM (inactive)	> 30 µM (inactive)	> 30 µM (inactive)	> 30 µM (inactive)	> 30 µM (inactive)	> 30 µM (inactive)	> 30 µM (inactive)	> 30 µM (inactive)
CN1N=C(N)c2cn([C@@H]3O[C@H](COP(=O)(O)O)[C@@H](O)[C@H]3O)c3ncnc1c23 [TRICIRIBINE PHOSPHATE]	> 30 µM (inactive)	> 30 µM (inactive)	> 30 µM (inactive)	> 30 µM (inactive)	> 30 µM (inactive)	> 30 µM (inactive)	> 30 µM (inactive)	> 30 µM (inactive)	> 30 µM (inactive)
Cc1cc([C@@H](C)Nc2ccccc2C(=O)O)c2nc(N3CCOCC3)cc(=O)n2c1 [AZD-6482]	> 30 µM (inactive)	> 30 µM (inactive)	> 30 µM (inactive)	> 30 µM (inactive)	> 30 µM (inactive)	> 30 µM (inactive)	> 30 µM (inactive)	> 30 µM (inactive)	> 30 µM (inactive)
CCS(=O)(=O)N1CC(CC#N)(n2cc(-c3ncnc4[nH]ccc34)cn2)C1 [BARICITINIB]	> 30 µM (inactive)	> 30 µM (inactive)	> 30 µM (inactive)	4.36 µM (active)	> 30 µM (inactive)	> 30 µM (inactive)	> 30 µM (inactive)	> 30 µM (inactive)	> 30 µM (inactive)
Cc1cc(-c2cc(O)ccc2Cl)cc2nnc(Nc3ccc(OCCN4CCCC4)cc3)nc12	> 30 µM (inactive)	> 30 µM (inactive)	> 30 µM (inactive)	0.003 µM (active)	> 30 µM (inactive)	> 30 µM (inactive)	0.001 µM (active)	> 30 µM (inactive)	> 30 µM (inactive)
O=C(c1ccc(F)c(F)c1Nc1ccc(I)cc1F)N1CC(O)([C@@H]2CCCCN2)C1 [COBIMETINIB]	> 30 µM (inactive)	> 30 µM (inactive)	> 30 µM (inactive)	> 30 µM (inactive)	> 30 µM (inactive)	> 30 µM (inactive)	> 30 µM (inactive)	> 30 µM (inactive)	> 30 µM (inactive)
O=c1sn(-c2cccc3ccccc23)c(=O)n1Cc1ccccc1 [TIDEGLUSIB]	> 30 µM (inactive)	> 30 µM (inactive)	> 30 µM (inactive)	> 30 µM (inactive)	> 30 µM (inactive)	> 30 µM (inactive)	> 30 µM (inactive)	> 30 µM (inactive)	> 30 µM (inactive)

More lines, now with the values ahead:

Kd [1]	Kd [2]	Kd [3]	Kd [4]	Kd [5]	Kd [6]	Kd [7]	Kd [8]	Kd [9]	Compound
> 30 µM (inactive)	> 30 µM (inactive)	> 30 µM (inactive)	> 30 µM (inactive)	> 30 µM (inactive)	> 30 µM (inactive)	> 30 µM (inactive)	> 30 µM (inactive)	> 30 µM (inactive)	COc1cc(OC)c(/C=C/S(=O)(=O)Cc2ccc(OC)c(NCC(=O)O)c2)c(OC)c1 [RIGOSERTIB]
> 30 µM (inactive)	> 30 µM (inactive)	> 30 µM (inactive)	> 30 µM (inactive)	> 30 µM (inactive)	> 30 µM (inactive)	> 30 µM (inactive)	> 30 µM (inactive)	> 30 µM (inactive)	COc1cc2nccc(Oc3ccc(NC(=O)Nc4cc(C)on4)c(Cl)c3)c2cc1OC [TIVOZANIB]
> 30 µM (inactive)	> 30 µM (inactive)	> 30 µM (inactive)	> 30 µM (inactive)	> 30 µM (inactive)	> 30 µM (inactive)	> 30 µM (inactive)	> 30 µM (inactive)	> 30 µM (inactive)	CC[C@@H]1C(=O)N(C)c2cnc(Nc3ccc(C(=O)N[C@H]4CC[C@H](N5CCN(CC6CC6)CC5)CC4)cc3OC)nc2N1C(C)C [VOLASERTIB]
> 30 µM (inactive)	> 30 µM (inactive)	> 30 µM (inactive)	> 30 µM (inactive)	> 30 µM (inactive)	> 30 µM (inactive)	> 30 µM (inactive)	> 30 µM (inactive)	> 30 µM (inactive)	Cc1cc2c(F)c(Oc3ncnn4cc(OC[C@@H](C)OC(=O)[C@H](C)N)c(C)c34)ccc2[nH]1 [BRIVANIB ALANINATE]
> 30 µM (inactive)	> 30 µM (inactive)	> 30 µM (inactive)	> 30 µM (inactive)	> 30 µM (inactive)	> 30 µM (inactive)	> 30 µM (inactive)	> 30 µM (inactive)	> 30 µM (inactive)	Cc1c(F)cc(C(=O)NC2CC2)cc1-c1ccc(C(=O)NCC(C)(C)C)cn1 [LOSMAPIMOD]
> 30 µM (inactive)	> 30 µM (inactive)	> 30 µM (inactive)	> 30 µM (inactive)	> 30 µM (inactive)	> 30 µM (inactive)	0.781 µM (active)	> 30 µM (inactive)	> 30 µM (inactive)	COc1cc(N2CCC(N3CCN(C)CC3)CC2)ccc1Nc1ncnc(Nc2ccccc2S(=O)(=O)C(C)C)n1 [ASP-3026]
